# Legend:
# [1] = Research of pharmacokinetic properties in SD rats (bioavailability); format: in vivo; settings: male SD rats; 1 mg/kg intravenous injection, 5 mg/kg by gavage
# Method: Research of Pharmacokinetic Properties in SD Rats
# This example was intended to evaluate the PK properties of test compound, and calculate the bioavailability in male SD rats. Each test compound used six male SD rats, Six male SD rats were randomly divided into two groups. Three rats were respectively administrated with the dose of 1 mg/kg by intravenous injection; the whole blood was collected at 0.0833, 0.25, 0.5, 1, 2, 4, 6, 8 and 24 h after administration and plasma samples were prepared. The other three rats were respectively administrated with the dose of 5 mg/kg by gavage, the whole blood was collected at 0.25, 0.5, 1, 2, 4, 6, 8 and 24 h after administration, and plasma samples were prepared. the concentration of the test compound in the plasma was tested by LC/MS/MS method, and relevant PK parameters was calculated with Phoenix WinNonlin 6.2.1.
# For the bioavailability data, see table 2.
# PCSK9 = PCSK9 (Homo sapiens (Human), UniProt Q8NBP7); experiment: In vitro screening experiment (AlphaLISA anti-PCSK9, PCSK9-Huh7 cells); format: cell-based; settings: 20 h incubation, AlphaLISA reading
# Method: 1) Preparation of 1× AlphaLISA test buffer solution:
# 2.5 ml of 10× AlphaLISA test buffer solution was added to 22.5 ml of Milli-Q water to produce the 1× AlphaLISA test buffer solution.
# 50 μL of 5 mg/mL Alpha LISA Anti-PCSK9 Acceptor beads and 50 μL of 500 nM Biotinylated Antibody Anti-PCSK9 were added to 9,900 μL of 1× AlphaLISA test buffer solution.
# 3) Preparation of 2× Streptavidin (SA) Donor beads (80 μg/mL):
# 200 μL of 5 mg/mL SA-Donor beads was added to 12,300 μL of 1× AlphaLISA test buffer solution.
# 3) 20 μL/pore mixture of 2.5× AlphaLISA Acceptor beads and Biotinylated Antibody Anti-PCSK9 was added, and incubated at 23° C. for 60 min.
# 4) 25 μL/pore 2× Streptavidin (SA) Donor beads were added; and incubated for 30 min at 23° C. (kept in dark place).
# 5) EnVision-Alpha Reader reading:
# Date was analyzed with Prismsoftware (nonlinear regression (Sigmoidal dose-response-variable slope) Inhibition ratio %=100*(Sample reading−LC reading)/(HC reading−LC reading) Computational formula: […]
F in rats (%) [1] [%],IC50 (PCSK9) [µM],Compound
20,–,"O=C(c1ccc(-n2nnc3cccnc32)cc1)N(c1ncccc1Cl)[C@@H]1CCCNC1 [PF-06446846, reference compound]"
68.0,< 10,Cc1cccnc1N(C(=O)c1ccc(C2=NOC(C)(C)C2=O)cc1)[C@@H]1CCCNC1 [WX002]
–,< 10,CC1(C)ON=C(c2ccc(C(=O)N(c3ccccn3)[C@@H]3CCCNC3)cc2)C1=O [WX006]
–,< 10,Cc1cc(F)cnc1N(C(=O)c1ccc(C2=NOC(C)(C)C2=O)cc1)[C@@H]1CCCNC1 [WX008]
–,< 10,COc1cccnc1N(C(=O)c1ccc(C2=NOC(C)(C)C2=O)cc1)[C@@H]1CCCNC1 [WX009]
–,< 10,Cc1cc(Cl)cnc1N(C(=O)c1ccc(C2=NOC(C)(C)C2=O)cc1)[C@@H]1CCCNC1 [WX011]
–,< 10,Cc1cnc(N(C(=O)c2ccc(C3=NOC(C)(C)C3=O)cc2)[C@@H]2CCCNC2)c(C)c1 [WX012]
–,< 10,CC1(C)ON=C(c2ccc(C(=O)N(c3ncccc3F)[C@@H]3CCCNC3)cc2)C1=O [WX013]
–,< 10,Cc1ccnc(N(C(=O)c2ccc(C3=NOC(C)(C)C3=O)cc2)[C@@H]2CCCNC2)c1Cl [WX015]
37.7,< 10,Cc1cc(C2=NOC(C)(C)C2=O)ccc1C(=O)N(c1ncccc1Cl)[C@@H]1CCCNC1 [WX021]
–,< 10,Cc1cc(C(=O)N(c2ncccc2Cl)[C@@H]2CCCNC2)ccc1C1=NOC(C)(C)C1=O [WX022]
–,< 10,Cc1cc(C2=NOC(C)(C)C2=O)ccc1C(=O)N(c1ncccc1C)[C@@H]1CCCNC1 [WX023]
–,< 10,Cc1cc(C(=O)N(c2ncccc2C)[C@@H]2CCCNC2)ccc1C1=NOC(C)(C)C1=O [WX024]
–,< 10,Cc1cccnc1N(C(=O)c1ccc(C2=NOC(C)(C)C2O)cc1)[C@@H]1CCCNC1 (stereo partly drawn) [WX025]
–,< 10,CC1(C)ON=C(c2ccc(C(=O)N(c3nccc4c3COC4)[C@@H]3CCCNC3)cc2)C1=O [WX026]
58.8,< 10,Cc1cccnc1N(C(=O)c1ccc(C2=NOC(C)(C)C2=O)cc1F)[C@@H]1CCCNC1 [WX027]
–,< 10,CC1(C)ON=C(c2ccc(C(=O)N(c3ncccc3-c3ccncc3)[C@@H]3CCCNC3)cc2)C1=O [WX037]
–,< 10,CC1(C)ON=C(c2ccc(C(=O)N(c3ncccc3-c3ccccc3)[C@@H]3CCCNC3)cc2)C1=O [WX038]
–,< 10,Cc1cccnc1N(C(=O)c1ccc(C2=NOC(C)(C)/C2=N\O)cc1)[C@@H]1CCCNC1 [WX039]
56.3,< 10,CO/N=C1/C(c2ccc(C(=O)N(c3ncccc3C)[C@@H]3CCCNC3)cc2)=NOC1(C)C [WX040]
–,< 10,COCc1cccnc1N(C(=O)c1ccc(C2=NOC(C)(C)C2=O)cc1)[C@@H]1CCCNC1 [WX041]

Compound,F in rats (%) [1] [%],IC50 (PCSK9) [µM]
CC1(C)ON=C(c2ccc(C(=O)N(c3ncccc3Cl)[C@@H]3CCCNC3)cc2)C1=O [WX001],83.9,< 10
